According to the NIST ThermoML archive (doi:10.1016/j.tca.2015.02.014):
± gives the expanded uncertainty stated by the source.

Experiment: mn = molality of the nth substance listed, in mol/kg
Details: 100 kPa, Liquid; for viscosity: Capillary tube (Ostwald / Ubbelohde) method; for speed of sound: Frequency=3 MHz, Sing-around technique in a fixed-path interferometer; for mass density: Vibrating tube method

C[C@H](CCC(=O)[O-])[C@H]1CC[C@H]2[C@@H]3[C@H](O)C[C@@H]4C[C@H](O)CC[C@]4(C)[C@H]3C[C@H](O)[C@]12C.[Na+] [sodium cholate] + O
Details	mass density [kg/m3]	speed of sound [m/s]	viscosity [mPa·s]
293.15 K, m1 = 0.001	998.33 ± 0.12	1483 ± 1.3	1.003 ± 0.021
293.15 K, m1 = 0.002	998.422 ± 0.12	1483.3 ± 1.4	1.004 ± 0.021
293.15 K, m1 = 0.003	998.533 ± 0.12	1483.6 ± 1.4	1.005 ± 0.021
293.15 K, m1 = 0.004	998.618 ± 0.12	1483.8 ± 1.4	1.007 ± 0.021
293.15 K, m1 = 0.006	998.805 ± 0.12	1484.4 ± 1.4	1.011 ± 0.021
293.15 K, m1 = 0.008	999.003 ± 0.12	1485 ± 1.4	1.016 ± 0.021
293.15 K, m1 = 0.01	999.241 ± 0.12	1485.8 ± 1.4	1.021 ± 0.021
293.15 K, m1 = 0.014	999.685 ± 0.12	1486.9 ± 1.3	1.033 ± 0.022
293.15 K, m1 = 0.018	1000.14 ± 0.14	1487.9 ± 1.7	1.041 ± 0.024
293.15 K, m1 = 0.022	1000.59 ± 0.12	1488.8 ± 1.3	1.048 ± 0.021
293.15 K, m1 = 0.026	1001 ± 0.13	1489.7 ± 1.3	1.056 ± 0.021
293.15 K, m1 = 0.03	1001.44 ± 0.13	1490.2 ± 1.3	1.063 ± 0.022
298.15 K, m1 = 0.001	997.158 ± 0.12	1497 ± 1.3	0.8906 ± 0.021
298.15 K, m1 = 0.002	997.267 ± 0.12	1497.3 ± 1.3	0.8925 ± 0.021
298.15 K, m1 = 0.003	997.369 ± 0.12	1497.6 ± 1.3	0.8939 ± 0.021
298.15 K, m1 = 0.004	997.455 ± 0.12	1497.9 ± 1.3	0.8955 ± 0.021
298.15 K, m1 = 0.006	997.635 ± 0.12	1498.4 ± 1.3	0.8987 ± 0.021
298.15 K, m1 = 0.008	997.835 ± 0.12	1499.1 ± 1.3	0.902 ± 0.021
298.15 K, m1 = 0.01	998.035 ± 0.12	1499.7 ± 1.3	0.9055 ± 0.021
298.15 K, m1 = 0.014	998.454 ± 0.13	1500.8 ± 1.3	0.9168 ± 0.021
298.15 K, m1 = 0.018	998.905 ± 0.13	1501.7 ± 1.3	0.9239 ± 0.021
298.15 K, m1 = 0.022	999.354 ± 0.13	1502.6 ± 1.3	0.9315 ± 0.021
298.15 K, m1 = 0.026	999.746 ± 0.13	1503.4 ± 1.3	0.9373 ± 0.021
298.15 K, m1 = 0.03	1000.14 ± 0.12	1504 ± 1.3	0.9429 ± 0.021
303.15 K, m1 = 0.001	995.785 ± 0.13	1509.5 ± 1.3	0.798 ± 0.021
303.15 K, m1 = 0.002	995.901 ± 0.13	1509.8 ± 1.3	0.7991 ± 0.021
303.15 K, m1 = 0.003	996.001 ± 0.13	1510 ± 1.3	0.7999 ± 0.021
303.15 K, m1 = 0.004	996.102 ± 0.13	1510.2 ± 1.3	0.8022 ± 0.021
303.15 K, m1 = 0.006	996.301 ± 0.13	1510.7 ± 1.3	0.8047 ± 0.021
303.15 K, m1 = 0.008	996.513 ± 0.13	1511.3 ± 1.3	0.8075 ± 0.021
303.15 K, m1 = 0.01	996.724 ± 0.13	1511.8 ± 1.3	0.8105 ± 0.021
303.15 K, m1 = 0.014	997.167 ± 0.13	1512.8 ± 1.3	0.8215 ± 0.021
303.15 K, m1 = 0.018	997.524 ± 0.13	1513.8 ± 1.3	0.8281 ± 0.021
303.15 K, m1 = 0.022	997.945 ± 0.13	1514.6 ± 1.3	0.8321 ± 0.021
303.15 K, m1 = 0.026	998.31 ± 0.13	1515.4 ± 1.3	0.838 ± 0.021
303.15 K, m1 = 0.03	998.815 ± 0.13	1516.1 ± 1.3	0.8429 ± 0.021
308.15 K, m1 = 0.001	994.145 ± 0.14	1520.2 ± 1.3	0.7202 ± 0.021
308.15 K, m1 = 0.002	994.255 ± 0.13	1520.5 ± 1.3	0.7212 ± 0.021
308.15 K, m1 = 0.003	994.348 ± 0.13	1520.7 ± 1.3	0.7225 ± 0.021
308.15 K, m1 = 0.004	994.455 ± 0.14	1520.9 ± 1.3	0.7241 ± 0.021
308.15 K, m1 = 0.006	994.7 ± 0.13	1521.4 ± 1.3	0.7265 ± 0.021
308.15 K, m1 = 0.008	994.885 ± 0.13	1522 ± 1.3	0.7295 ± 0.021
308.15 K, m1 = 0.01	995.101 ± 0.13	1522.4 ± 1.3	0.7323 ± 0.021
308.15 K, m1 = 0.014	995.521 ± 0.13	1523.4 ± 1.3	0.7415 ± 0.021
308.15 K, m1 = 0.018	995.957 ± 0.13	1524.2 ± 1.3	0.7461 ± 0.021
308.15 K, m1 = 0.022	996.357 ± 0.13	1525 ± 1.3	0.7509 ± 0.021
308.15 K, m1 = 0.026	996.744 ± 0.13	1525.8 ± 1.3	0.7561 ± 0.021
308.15 K, m1 = 0.03	997.176 ± 0.13	1526.4 ± 1.3	0.7619 ± 0.021
313.15 K, m1 = 0.001	992.351 ± 0.14	1529.3 ± 1.3	0.6535 ± 0.021
313.15 K, m1 = 0.002	992.449 ± 0.14	1529.6 ± 1.3	0.6544 ± 0.021
313.15 K, m1 = 0.003	992.547 ± 0.14	1529.8 ± 1.3	0.6556 ± 0.021
313.15 K, m1 = 0.004	992.655 ± 0.14	1530 ± 1.3	0.6571 ± 0.021
313.15 K, m1 = 0.006	992.873 ± 0.14	1530.4 ± 1.3	0.6595 ± 0.021
313.15 K, m1 = 0.008	993.087 ± 0.14	1530.9 ± 1.3	0.662 ± 0.021
313.15 K, m1 = 0.01	993.304 ± 0.14	1531.3 ± 1.3	0.6648 ± 0.021
313.15 K, m1 = 0.014	993.711 ± 0.14	1532.3 ± 1.3	0.6722 ± 0.021
313.15 K, m1 = 0.018	994.126 ± 0.14	1533.1 ± 1.3	0.6772 ± 0.021
313.15 K, m1 = 0.022	994.505 ± 0.14	1533.9 ± 1.3	0.6813 ± 0.021
313.15 K, m1 = 0.026	994.935 ± 0.14	1534.6 ± 1.3	0.6865 ± 0.021
313.15 K, m1 = 0.03	995.354 ± 0.14	1535.2 ± 1.3	0.6918 ± 0.021
318.15 K, m1 = 0.001	990.351 ± 0.14	1536.9 ± 1.3	0.5973 ± 0.021
318.15 K, m1 = 0.002	990.445 ± 0.14	1537.2 ± 1.3	0.5985 ± 0.021
318.15 K, m1 = 0.003	990.539 ± 0.14	1537.3 ± 1.3	0.5997 ± 0.021
318.15 K, m1 = 0.004	990.629 ± 0.14	1537.5 ± 1.3	0.6013 ± 0.021
318.15 K, m1 = 0.006	990.864 ± 0.14	1537.9 ± 1.3	0.6035 ± 0.021
318.15 K, m1 = 0.008	991.051 ± 0.14	1538.3 ± 1.3	0.6062 ± 0.021
318.15 K, m1 = 0.01	991.257 ± 0.14	1538.7 ± 1.3	0.609 ± 0.021
318.15 K, m1 = 0.014	991.671 ± 0.23	1539.5 ± 1.3	0.6161 ± 0.021
318.15 K, m1 = 0.018	992.088 ± 0.15	1540.4 ± 1.3	0.6201 ± 0.021
318.15 K, m1 = 0.022	992.491 ± 0.14	1541.2 ± 1.3	0.6245 ± 0.021
318.15 K, m1 = 0.026	992.905 ± 0.14	1541.9 ± 1.3	0.6291 ± 0.021
318.15 K, m1 = 0.03	993.313 ± 0.14	1542.5 ± 1.3	0.6328 ± 0.021
